The values that follow come from patent US8148391B2 (Cephalon, Inc., priority 2006, dated 2012).

Experiment [1] concerns the target T1, baculovirus-expressed ALK (Homo sapiens, UniProt Q9UM73).
T1 construct: host or cells: baculovirus expression system
In words: ALK Kinase Assay (ELISA-type, time-resolved fluorescence). As to conditions: 1 μM ATP (Km level); read-out: ALK Activity (ALK Kinase Inhibition, IC50). The format is biochemical. The method in brief: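 Substrate coating: phospholipase C-γ, 10 μg/mL in TBS. Kinase step: 30 ng/ml ALK, 15 min, 37° C. Detection and analysis: Eu-N1 PT66 antibody, with IC50 fitted as a sigmoidal variable-slope dose-response curve.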

The target of experiment [2] is T2, c-Met (cytoplasmic domain) (Homo sapiens, UniProt P08581).
T2 construct: 10 ng/mL c-Met (cytoplasmic domain, Invitrogen Corporation #PV3143); purchased Invitrogen Corporation PV3143
In words: c-Met Kinase Assay (same methods as for ALK, with modifications). It is filed as biochemical. Particulars: 1 μM ATP (Km level); read-out: cMet Activity (c-Met Kinase Inhibition, IC50). Summed up: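 Wells were coated with 10 μg/mL phospholipase C-γ substrate in TBS, and reactions were started with 10 ng/mL c-Met cytoplasmic domain and run at 37° C for 15 minutes. Phosphorylated product was detected with Eu-N1-labeled PT66 antibody. IC50 values came from sigmoidal variable-slope fits of percent inhibition versus log compound concentration.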

T1 sequence (Q9UM73 19-1620): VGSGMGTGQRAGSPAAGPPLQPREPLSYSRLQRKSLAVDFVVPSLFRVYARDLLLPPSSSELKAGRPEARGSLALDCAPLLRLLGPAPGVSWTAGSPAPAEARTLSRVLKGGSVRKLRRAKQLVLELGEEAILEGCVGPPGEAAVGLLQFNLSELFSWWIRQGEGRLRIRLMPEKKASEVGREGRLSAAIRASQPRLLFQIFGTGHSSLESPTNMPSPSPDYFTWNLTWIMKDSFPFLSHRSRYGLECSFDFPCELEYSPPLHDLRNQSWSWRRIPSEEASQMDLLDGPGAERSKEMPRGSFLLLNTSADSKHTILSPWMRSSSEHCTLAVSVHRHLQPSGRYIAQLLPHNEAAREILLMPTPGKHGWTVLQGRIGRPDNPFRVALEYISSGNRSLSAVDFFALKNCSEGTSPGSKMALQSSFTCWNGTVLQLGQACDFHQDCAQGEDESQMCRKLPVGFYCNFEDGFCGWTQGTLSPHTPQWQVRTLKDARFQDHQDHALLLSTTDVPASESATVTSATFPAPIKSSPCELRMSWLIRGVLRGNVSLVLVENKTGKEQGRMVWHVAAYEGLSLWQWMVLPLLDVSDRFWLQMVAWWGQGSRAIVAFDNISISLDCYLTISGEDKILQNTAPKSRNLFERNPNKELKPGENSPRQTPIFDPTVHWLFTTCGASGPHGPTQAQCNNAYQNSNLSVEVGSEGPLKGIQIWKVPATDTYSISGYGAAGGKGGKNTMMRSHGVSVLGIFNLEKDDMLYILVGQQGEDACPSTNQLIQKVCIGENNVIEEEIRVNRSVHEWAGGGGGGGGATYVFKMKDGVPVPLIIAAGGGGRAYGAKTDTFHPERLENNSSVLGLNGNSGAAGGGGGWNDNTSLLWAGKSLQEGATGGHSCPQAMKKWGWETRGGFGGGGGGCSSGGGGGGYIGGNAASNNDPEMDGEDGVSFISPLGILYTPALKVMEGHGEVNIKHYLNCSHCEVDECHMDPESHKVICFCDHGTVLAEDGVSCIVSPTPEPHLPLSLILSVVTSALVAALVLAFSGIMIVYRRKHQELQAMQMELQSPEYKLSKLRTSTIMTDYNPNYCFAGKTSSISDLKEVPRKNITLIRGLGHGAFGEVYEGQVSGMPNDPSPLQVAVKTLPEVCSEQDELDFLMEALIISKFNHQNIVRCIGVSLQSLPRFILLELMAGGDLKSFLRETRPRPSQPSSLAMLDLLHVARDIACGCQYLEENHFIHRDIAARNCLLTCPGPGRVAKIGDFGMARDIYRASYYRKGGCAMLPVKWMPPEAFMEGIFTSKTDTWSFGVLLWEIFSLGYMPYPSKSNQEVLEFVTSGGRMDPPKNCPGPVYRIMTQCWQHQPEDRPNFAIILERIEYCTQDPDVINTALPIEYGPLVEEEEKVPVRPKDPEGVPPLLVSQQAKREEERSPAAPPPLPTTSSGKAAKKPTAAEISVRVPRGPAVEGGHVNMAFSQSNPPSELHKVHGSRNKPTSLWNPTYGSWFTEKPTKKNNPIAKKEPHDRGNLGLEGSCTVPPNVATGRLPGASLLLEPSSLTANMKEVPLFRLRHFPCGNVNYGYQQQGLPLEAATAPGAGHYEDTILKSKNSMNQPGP
T2 sequence (P08581 956-1390 limits assumed): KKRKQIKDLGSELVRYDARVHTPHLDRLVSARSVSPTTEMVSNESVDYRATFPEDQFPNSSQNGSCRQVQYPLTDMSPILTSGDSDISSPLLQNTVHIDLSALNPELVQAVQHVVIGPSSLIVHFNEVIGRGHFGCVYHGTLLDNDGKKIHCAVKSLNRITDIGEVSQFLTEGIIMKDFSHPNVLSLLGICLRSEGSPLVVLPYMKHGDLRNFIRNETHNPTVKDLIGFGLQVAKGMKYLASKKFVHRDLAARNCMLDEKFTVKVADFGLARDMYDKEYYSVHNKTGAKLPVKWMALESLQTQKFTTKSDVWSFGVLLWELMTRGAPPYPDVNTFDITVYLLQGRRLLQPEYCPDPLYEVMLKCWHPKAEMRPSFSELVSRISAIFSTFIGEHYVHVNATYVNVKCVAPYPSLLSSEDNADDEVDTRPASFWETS

As for `CCN1CCN(CC)c2cc(Nc3ncc(Cl)c(Nc4c(F)cccc4C(=O)NC)n3)ccc2C1` [Example 716, 2-[5-Chloro-2-(1,4-diethyl-2,3,4,5-tetrahydro-1H-1,4-benzodiazepin-8-ylamino)-pyrimidin-4-ylamino]-3-fluoro-N-methyl-benzamide], the half-inhibitory concentration (IC50) in experiment [1] and in experiment [2] was less than 100 nM each time.

With `CCN1CCN(CC)c2cc(Nc3ncc(Cl)c(N[C@H]4[C@@H]5CC[C@@H](C5)[C@H]4C(N)=O)n3)ccc2C1` [Example 717, (2-exo,3-exo)-3-[5-Chloro-2-(1,4-diethyl-2,3,4,5-tetrahydro-1H-1,4-benzodiazepin-8-ylamino)-pyrimidin-4-ylamino]bicyclo[2.2.1]heptane-2-carboxylic acid amide], the values for the concentration for half-maximal inhibition (IC50) in experiment [1] and in experiment [2] were less than 100 nM and 1000 to 10000 nM, respectively.

For the compound `CCNC(=O)c1ccccc1Nc1nc(Nc2ccc3c(c2)N(CC)CCN(CC)C3)ncc1Cl` [Example 718, 2-[5-Chloro-2-(1,4-diethyl-2,3,4,5-tetrahydro-1H-1,4-benzodiazepin-8-ylamino)-pyrimidin-4-ylamino]-N-ethyl-benzamide], the IC50 in experiment [1] and in experiment [2] was less than 100 nM each time.

`CCN1CCN(CC)c2cc(Nc3ncc(Cl)c(Nc4cc(Cl)ccc4OC)n3)ccc2C1` [Example 719, 5-Chloro-N*4*(5-chloro-2-methoxy-phenyl-N*2*-(1,4-diethyl-2,3,4,5-tetrahydro-1H-benzo[e][1,4]diazepin-8-yl)-pyrimidine)-2,4-diamine]: the figures for the IC50 in experiment [1] and in experiment [2] were less than 100 nM and 1000 to 10000 nM, respectively.

`CCN1CCN(CC)c2cc(Nc3ncc(Cl)c(N[C@H]4[C@@H](C(N)=O)[C@@H]5C=C[C@H]4C5)n3)ccc2C1` [Example 720, (1S,2S,3R,4R)-3 [5-Chloro-2-(1,4-diethyl-2,3,4,5-tetrahydro-1H-1,4-benzodiazepin-8-ylamino)-pyrimidin-4ylamino]-bicyclo[2.2.1]hept-5-ene-2-carboxylic acid amide]: the IC50 in experiment [1] is less than 100 nM; in experiment [2], 1000 to 10000 nM.

Consider `CCN1CCN(CC)c2cc(Nc3ncc(Cl)c(Nc4ccc5c(c4)N(CC)CCN(CC)C5)n3)ccc2C1` [Example 721, 5-Chloro-N*2*,N*4*-bis(1,4-diethyl-2,3,4,5-tetrahydro-1H-benzo[e][1,4]diazepin-8-yl)-pyrimidin-2,4-diamine], for which the values for the IC50 in experiment [1] and in experiment [2] were less than 100 nM and more than 10000 nM, respectively.

Take `CCN1CCN(CC)c2cc(Nc3ncc(Cl)c(Nc4ccc5c(c4)N(CC)CCN(CC)C5=O)n3)ccc2C1` [Example 722, 8-[5-Chloro-2-(1,4-diethyl-2,3,4,5-tetrahydro-1H-benzo[e][1,4]diazepin-8-ylamino)-pyrimidin-4-ylamino]-1,4-diethyl-1,2,3,4-tetrahydro-benzo[e][1,4]diazepin-5-one]: the 50% inhibitory concentration (IC50) in experiment [1] is 100 to 1000 nM; in experiment [2] it was more than 10000 nM.

For `CCN1CCN(CC)c2cc(Nc3nc(Nc4cc5c(cc4OC)CCN(CC(=O)N(C)C)CC5)ncc3Cl)ccc2C1` [Example 723], the IC50 in experiment [1] was less than 100 nM; in experiment [2], more than 10000 nM.

For `CCN1CCN(CC)c2cc(Nc3nc(Nc4cc5c(cc4OC)CCN(CC(=O)N(C)C)CC5)ncc3Cl)ccc2C1=O` [Example 724, 2-{7-[5-Chloro-4-(1,4-diethyl-5-oxo-2,3,4,5-tetrahydro-1H-benzo[e][1,4]diazepin-8-ylamino)-pyrimidin-2-ylamino]-8-methoxy-1,2,3,4-tetrahydro-benzo[d]azepin-3-yl}-N,N-dimethyl-acetamide], the IC50 in experiment [1] was less than 100 nM; in experiment [2], more than 10000 nM.

In the case of `CCN1CCN(CC)c2cc(Nc3ncc(Cl)c(Nc4ccccc4-n4cccn4)n3)ccc2C1` [Example 725, 5-Chloro-N(2)-(1,4-diethyl-2,3,4,5-tetrahydro-1H-benzo[e][1,4]diazepin-8-yl)-N(4)-(2-pyrazol-1-yl-phenyl)-pyrimidine-2,4-diamine], the results for the half-inhibitory concentration (IC50) in experiment [1] and in experiment [2] were less than 100 nM and 100 to 1000 nM, respectively.

`CCN1C(=O)CN(CCOC)Cc2cc(OC)c(Nc3ncc(Cl)c(Nc4ccc(N5CCOCC5)cc4OC)n3)cc21` [Example 726, 8-[5-Chloro-4-(2-methoxy-4-morpholin-4-yl-phenylamino)-pyrimidin-2-ylamino]-1-ethyl-7-methoxy-4-(2-methoxy-ethyl)-1,3,4,5-tetrahydro-benzo[e][1,4]diazepin-2-one]: the IC50 in experiment [1] was 100 to 1000 nM; in experiment [2] it was more than 10000 nM.

As for `CCN1C(=O)CN(CC(=O)N(C)C)Cc2cc(OC)c(Nc3ncc(Cl)c(Nc4ccc(N5CCOCC5)cc4OC)n3)cc21` [Example 727, 2-{8-[5-Chloro-4-(2-methoxy-4-morpholin-4-yl-phenylamino)-pyrimidin-2-ylamino]-1-ethyl-7-methoxy-2-oxo-1,2,3,5-tetrahydro-benzo[e][1,4]diazepin-4-yl}-N,N-dimethyl-acetamide], the results for the IC50 in experiment [1] and in experiment [2] were 100 to 1000 nM and more than 10000 nM, respectively.

As to `CCN1CCN(CC)c2cc(Nc3ncc(Cl)c(Nc4ccccc4S(=O)(=O)C(C)C)n3)ccc2C1` [Example 728, 5-Chloro-N(2)-(1,4-diethyl-2,3,4,5-tetrahydro-1H-benzo[e][1,4]diazepin-8-yl)-N(4)-[2-(propane-2-sulfonyl)-phenyl]-pyrimidine-2,4-diamine], the IC50 in experiment [1] is less than 100 nM; in experiment [2], 100 to 1000 nM.

As to `CCN1C(=O)CNCc2cc(OC)c(Nc3ncc(Cl)c(Nc4ccccc4S(=O)(=O)C(C)C)n3)cc21` [Example 729, 8-{5-Chloro-4-[2-(propane-2-sulfonyl)-phenylamino]-pyrimidin-2-ylamino}-1-ethyl-7-methoxy-1,3,4,5-tetrahydro-benzo[e][1,4]diazepin-2-one], the IC50 was less than 100 nM in experiment [1] and 1000 to 10000 nM in experiment [2].

Turning to `CCN1CCN(CC)c2cc(Nc3ncc(Cl)c(Nc4ccccc4S(=O)(=O)N(C)C)n3)ccc2C1` [Example 730, 2-[5-Chloro-2-(1,4-diethyl-2,3,4,5-tetrahydro-1H-benzo[e][1,4]diazepin-8-ylamino)-pyrimidin-4-ylamino]-N,N-dimethyl-benzenesulfonamide], the concentration for half-maximal inhibition (IC50) in experiment [1] and in experiment [2] was less than 100 nM each time.

For the compound `CCN1CCN(CC)c2cc(Nc3ncc(Cl)c(Nc4ccccc4OCC#N)n3)ccc2C1` [Example 731, {2-[5-Chloro-2-(1,4-diethyl-2,3,4,5-tetrahydro-1H-benzo[e][1,4]diazepin-8-ylamino)-pyrimidin-4-ylamino]-phenoxy}-acetonitrile], the half-inhibitory concentration (IC50) was less than 100 nM in experiment [1] and 100 to 1000 nM in experiment [2].

In the case of `CCN1CCN(CC)c2cc(Nc3ncc(Cl)c(Nc4ccc(OC)cc4-n4cccn4)n3)ccc2C1` [Example 732, 5-Chloro-N(2)-(1,4-diethyl-2,3,4,5-tetrahydro-1H-benzo[e][1,4]diazepin-8-yl)-N(4)-(4-methoxy-2-pyrazol-1-yl-phenyl)-pyrimidine-2,4-diamine], the IC50 was less than 100 nM in experiment [1] and 1000 to 10000 nM in experiment [2].

Take `CCN1CCN(CC)c2cc(Nc3ncc(Cl)c(Nc4ccc5c(c4)CN(CCOC)CCS5)n3)ccc2C1` [Example 733, 5-Chloro-N(2)-(1,4-diethyl-2,3,4,5-tetrahydro-1H-benzo[e][1,4]diazepin-8-yl)-N(4)-[8-(2-methoxy-ethyl)-6,7,8,9-tetrahydro-5-thia-8-aza-benzocyclohepten-2-yl]-pyrimidine-2,4-diamine]: the IC50 was less than 100 nM in experiment [1] and 1000 to 10000 nM in experiment [2].

As usually defined, the IC50 is the midpoint of a concentration-inhibition curve.
